# pIC50: −log10 of the molar value. Where a name gives a salt, the structure may show the parent alone. Read-outs that look alike come from different tables or passages of the source.
# Key:
# mTOR = biological target: T1, mTOR (Homo sapiens, UniProt P42345); test: mTOR kinobeads assay (competitive binding in Jurkat cell lysate, immunodetection)
# T1 construct: endogenous in cells; host or cells: Jurkat, clone E6-1 (ATCC TIB-152) cell lysate
# How it was run: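 IC50 derived from dose-response curves of mTOR captured on immobilized phenylmorpholin-chromen beads, detected by antibody dot blot with infrared fluorescence.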
# PI3K delta (PI3 Kd) = biological target: T2, PI3K delta (PI3 Kd) (Homo sapiens, UniProt O00329); test: kinobeads assay, PI3K delta; format: binding
# T2 construct: endogenous in cells; host or cells: Jurkat, clone E6-1 (ATCC TIB-152) cell lysate
# How it was run: (§1)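 Competitive binding in Jurkat cell lysate (5 mg/mL protein) against beads carrying an immobilized phenylmorpholin-chromen ligand, in DP buffer pH 7.4 with NP40, DTT and NaF. Bead-bound kinases were eluted and quantified by antibody dot blot with infrared detection, and IC50 was taken from dose-response curves of a 1:3 dilution series.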
# [1] = biological target: T3, DNA-dependent protein kinase (DNA-PK) (Homo sapiens, UniProt P78527); test: kinobeads assay, DNA-PK; format: binding
# T3 construct: endogenous in cells; host or cells: Jurkat, clone E6-1 (ATCC TIB-152) cell lysate
# How it was run: as §1
# PI3Kalpha (PI3Ka) = biological target: T4, PI3Kalpha (PI3Ka) (Homo sapiens, UniProt P42336); test: kinobeads assay, PI3Kalpha; format: binding
# T4 construct: endogenous in cells; host or cells: cell lysate
# Experimental: (§2) The kinobeads assay was performed as a competitive binding assay in which test compounds were added directly into a cell lysate. Test compounds (at various concentrations) and the affinity matrix (beads with immobilized phenylmorpholin-chromen ligand) were added to cell lysate aliquots and allowed to bind to the proteins contained in the lysate sample. After the incubation time the beads with captured proteins were separated from the lysate. Bound proteins were then eluted and the presence of kinases was detected and quantified using a multiplexed immunodetection format. Dose response curves for individual kinases were generated and IC50 values calculated.
# (§3) The effect of the compounds on the kinases PI3Kalpha (PI3Ka), PI3 Kbeta (PI3 Kb) and PI3 Kgamma (PI3 Kg) were tested in the kinobeads assay as described (WO-A 2009/098021).
# PI3 Kbeta (PI3 Kb) = biological target: T5, PI3 Kbeta (PI3 Kb) (Homo sapiens, UniProt P42338); test: kinobeads assay, PI3Kbeta; format: binding
# T5 construct: endogenous in cells; host or cells: cell lysate
# Experimental: as §2, §3
# PI3 Kgamma (PI3 Kg) = biological target: T6, PI3 Kgamma (PI3 Kg) (Homo sapiens, UniProt P48736); test: kinobeads assay, PI3Kgamma; format: binding
# T6 construct: endogenous in cells; host or cells: cell lysate
# Experimental: as §2, §3
# [2] = Further Kinobeads Data, read-out: mTor
# [3] = Further Kinobeads Data, read-out: PI3Kd
# [4] = Further Kinobeads Data, read-out: DNAPK
# [5] = Further Kinobeads Data, read-out: PI3Kb
# [6] = Further Kinobeads Data, read-out: PI3Kg
# [7] = kinobeads assay, Table 6, read-out: Inhibition values (IC50) mTOR
# [8] = kinobeads assay, Table 6, read-out: Inhibition values (IC50) PI3Kd
# [9] = kinobeads assay, Table 6, read-out: Inhibition values (IC50) DNAPK
# [10] = kinobeads assay, Table 6, read-out: Inhibition values (IC50) PI3Kb
# [11] = kinobeads assay, Table 6, read-out: Inhibition values (IC50) PI3Kg
# [12] = kinobeads assay, Table 6, read-out: Inhibition values (IC50) PI3Ka
# T4 sequence (P42336 whole entry): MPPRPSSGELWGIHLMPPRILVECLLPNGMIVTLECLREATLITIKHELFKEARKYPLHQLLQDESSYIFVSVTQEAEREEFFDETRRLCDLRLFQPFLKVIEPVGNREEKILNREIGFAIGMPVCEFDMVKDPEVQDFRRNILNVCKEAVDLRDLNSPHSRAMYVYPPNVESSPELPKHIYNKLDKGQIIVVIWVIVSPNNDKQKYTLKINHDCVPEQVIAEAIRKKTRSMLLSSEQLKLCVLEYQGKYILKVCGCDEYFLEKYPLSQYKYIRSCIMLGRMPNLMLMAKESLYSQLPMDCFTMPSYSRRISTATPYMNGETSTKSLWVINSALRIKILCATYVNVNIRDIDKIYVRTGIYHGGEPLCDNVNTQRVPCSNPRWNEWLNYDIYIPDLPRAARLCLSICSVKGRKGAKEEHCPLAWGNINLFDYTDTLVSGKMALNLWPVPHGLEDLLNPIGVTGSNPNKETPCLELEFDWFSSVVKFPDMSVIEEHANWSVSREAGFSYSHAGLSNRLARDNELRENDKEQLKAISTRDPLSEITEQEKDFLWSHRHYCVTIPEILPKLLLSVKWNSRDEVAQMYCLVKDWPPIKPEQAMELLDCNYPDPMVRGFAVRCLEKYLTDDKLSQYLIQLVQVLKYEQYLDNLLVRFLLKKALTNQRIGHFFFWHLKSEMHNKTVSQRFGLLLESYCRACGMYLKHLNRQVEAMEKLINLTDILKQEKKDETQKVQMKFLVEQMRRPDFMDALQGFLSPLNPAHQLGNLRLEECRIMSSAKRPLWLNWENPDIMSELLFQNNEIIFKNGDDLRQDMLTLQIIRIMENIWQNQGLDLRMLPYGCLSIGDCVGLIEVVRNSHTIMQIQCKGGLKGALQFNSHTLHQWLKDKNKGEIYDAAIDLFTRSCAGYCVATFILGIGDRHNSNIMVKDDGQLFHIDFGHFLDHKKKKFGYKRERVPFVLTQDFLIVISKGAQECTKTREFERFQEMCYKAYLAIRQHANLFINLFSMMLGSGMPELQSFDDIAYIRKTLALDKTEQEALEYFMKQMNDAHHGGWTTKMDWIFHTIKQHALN
# T4 sequence (P27986 whole entry partner): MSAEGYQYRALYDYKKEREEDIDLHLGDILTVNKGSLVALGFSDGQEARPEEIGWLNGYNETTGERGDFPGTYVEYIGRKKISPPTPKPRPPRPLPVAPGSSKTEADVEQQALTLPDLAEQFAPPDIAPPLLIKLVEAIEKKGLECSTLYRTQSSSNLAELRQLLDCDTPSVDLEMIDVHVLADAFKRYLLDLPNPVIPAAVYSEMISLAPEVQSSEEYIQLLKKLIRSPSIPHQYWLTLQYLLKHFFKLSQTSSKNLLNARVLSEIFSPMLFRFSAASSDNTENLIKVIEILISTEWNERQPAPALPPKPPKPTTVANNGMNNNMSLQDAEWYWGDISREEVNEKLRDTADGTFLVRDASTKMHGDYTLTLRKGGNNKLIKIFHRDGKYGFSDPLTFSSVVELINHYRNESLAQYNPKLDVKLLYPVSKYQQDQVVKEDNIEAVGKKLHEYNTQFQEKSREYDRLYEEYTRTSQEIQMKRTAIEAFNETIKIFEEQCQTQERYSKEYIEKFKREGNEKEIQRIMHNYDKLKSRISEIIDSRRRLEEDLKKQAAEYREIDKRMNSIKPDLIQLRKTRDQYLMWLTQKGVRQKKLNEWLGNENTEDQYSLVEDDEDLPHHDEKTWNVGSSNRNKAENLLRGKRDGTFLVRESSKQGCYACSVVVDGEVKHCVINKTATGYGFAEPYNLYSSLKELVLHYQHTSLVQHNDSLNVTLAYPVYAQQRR
# T5 sequence (P42338 whole entry): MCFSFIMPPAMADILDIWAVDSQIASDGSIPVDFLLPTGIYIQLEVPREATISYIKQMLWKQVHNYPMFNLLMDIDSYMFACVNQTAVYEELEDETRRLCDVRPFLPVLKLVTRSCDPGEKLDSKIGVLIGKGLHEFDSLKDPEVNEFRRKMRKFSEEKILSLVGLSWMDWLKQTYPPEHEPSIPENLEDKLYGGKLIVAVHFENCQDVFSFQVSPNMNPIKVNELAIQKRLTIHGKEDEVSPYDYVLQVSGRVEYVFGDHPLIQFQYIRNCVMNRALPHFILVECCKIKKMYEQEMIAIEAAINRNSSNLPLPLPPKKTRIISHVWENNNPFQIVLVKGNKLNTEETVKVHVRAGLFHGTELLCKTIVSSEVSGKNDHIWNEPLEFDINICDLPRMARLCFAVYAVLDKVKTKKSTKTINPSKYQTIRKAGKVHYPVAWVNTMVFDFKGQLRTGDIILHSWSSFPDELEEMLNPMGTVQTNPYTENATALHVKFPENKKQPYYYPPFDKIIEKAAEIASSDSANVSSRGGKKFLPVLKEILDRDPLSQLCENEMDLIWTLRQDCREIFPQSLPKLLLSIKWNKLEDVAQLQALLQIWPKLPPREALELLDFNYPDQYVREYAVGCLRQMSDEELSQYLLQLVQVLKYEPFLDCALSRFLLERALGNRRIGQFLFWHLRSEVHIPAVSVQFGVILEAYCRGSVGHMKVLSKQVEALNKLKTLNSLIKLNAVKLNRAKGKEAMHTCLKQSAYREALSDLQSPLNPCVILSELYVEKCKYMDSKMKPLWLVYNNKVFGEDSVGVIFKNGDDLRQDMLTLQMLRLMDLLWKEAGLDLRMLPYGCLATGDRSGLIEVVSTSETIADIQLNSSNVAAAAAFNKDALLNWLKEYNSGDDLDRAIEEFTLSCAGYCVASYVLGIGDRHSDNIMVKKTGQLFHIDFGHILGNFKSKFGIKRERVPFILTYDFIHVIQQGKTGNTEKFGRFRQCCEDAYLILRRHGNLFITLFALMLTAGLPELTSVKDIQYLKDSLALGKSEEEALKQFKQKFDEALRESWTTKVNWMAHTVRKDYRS
# T5 sequence (P27986 whole entry partner): as the sequence (P27986 whole entry partner) above
# T2 sequence (O00329 whole entry): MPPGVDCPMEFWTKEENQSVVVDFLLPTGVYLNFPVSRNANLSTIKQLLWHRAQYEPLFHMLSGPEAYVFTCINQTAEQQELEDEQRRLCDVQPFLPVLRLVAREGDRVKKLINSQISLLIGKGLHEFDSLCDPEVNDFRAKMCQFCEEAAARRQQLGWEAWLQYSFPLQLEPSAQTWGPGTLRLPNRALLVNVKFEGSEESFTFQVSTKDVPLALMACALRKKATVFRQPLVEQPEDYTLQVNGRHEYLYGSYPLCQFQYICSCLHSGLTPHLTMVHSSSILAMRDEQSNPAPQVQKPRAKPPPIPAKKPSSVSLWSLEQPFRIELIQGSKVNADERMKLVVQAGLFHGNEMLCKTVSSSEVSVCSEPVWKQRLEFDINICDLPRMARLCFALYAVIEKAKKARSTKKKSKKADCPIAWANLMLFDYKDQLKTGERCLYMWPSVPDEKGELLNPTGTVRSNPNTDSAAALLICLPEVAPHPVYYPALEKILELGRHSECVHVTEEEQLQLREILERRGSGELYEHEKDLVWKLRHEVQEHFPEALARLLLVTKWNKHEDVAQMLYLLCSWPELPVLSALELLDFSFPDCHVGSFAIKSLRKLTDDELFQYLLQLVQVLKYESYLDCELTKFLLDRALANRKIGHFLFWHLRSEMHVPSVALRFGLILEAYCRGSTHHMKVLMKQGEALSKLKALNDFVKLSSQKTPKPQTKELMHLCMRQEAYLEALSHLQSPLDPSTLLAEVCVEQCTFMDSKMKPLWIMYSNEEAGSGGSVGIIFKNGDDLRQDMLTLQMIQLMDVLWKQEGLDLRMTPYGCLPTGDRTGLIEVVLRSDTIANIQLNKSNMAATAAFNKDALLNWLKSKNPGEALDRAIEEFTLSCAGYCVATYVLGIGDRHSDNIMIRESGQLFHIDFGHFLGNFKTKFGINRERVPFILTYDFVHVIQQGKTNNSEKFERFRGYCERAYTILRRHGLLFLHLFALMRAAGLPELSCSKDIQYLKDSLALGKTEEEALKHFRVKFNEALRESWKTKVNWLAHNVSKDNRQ
# T2 sequence (P27986 whole entry partner): as the sequence (P27986 whole entry partner) above
# T6 sequence (P48736 whole entry): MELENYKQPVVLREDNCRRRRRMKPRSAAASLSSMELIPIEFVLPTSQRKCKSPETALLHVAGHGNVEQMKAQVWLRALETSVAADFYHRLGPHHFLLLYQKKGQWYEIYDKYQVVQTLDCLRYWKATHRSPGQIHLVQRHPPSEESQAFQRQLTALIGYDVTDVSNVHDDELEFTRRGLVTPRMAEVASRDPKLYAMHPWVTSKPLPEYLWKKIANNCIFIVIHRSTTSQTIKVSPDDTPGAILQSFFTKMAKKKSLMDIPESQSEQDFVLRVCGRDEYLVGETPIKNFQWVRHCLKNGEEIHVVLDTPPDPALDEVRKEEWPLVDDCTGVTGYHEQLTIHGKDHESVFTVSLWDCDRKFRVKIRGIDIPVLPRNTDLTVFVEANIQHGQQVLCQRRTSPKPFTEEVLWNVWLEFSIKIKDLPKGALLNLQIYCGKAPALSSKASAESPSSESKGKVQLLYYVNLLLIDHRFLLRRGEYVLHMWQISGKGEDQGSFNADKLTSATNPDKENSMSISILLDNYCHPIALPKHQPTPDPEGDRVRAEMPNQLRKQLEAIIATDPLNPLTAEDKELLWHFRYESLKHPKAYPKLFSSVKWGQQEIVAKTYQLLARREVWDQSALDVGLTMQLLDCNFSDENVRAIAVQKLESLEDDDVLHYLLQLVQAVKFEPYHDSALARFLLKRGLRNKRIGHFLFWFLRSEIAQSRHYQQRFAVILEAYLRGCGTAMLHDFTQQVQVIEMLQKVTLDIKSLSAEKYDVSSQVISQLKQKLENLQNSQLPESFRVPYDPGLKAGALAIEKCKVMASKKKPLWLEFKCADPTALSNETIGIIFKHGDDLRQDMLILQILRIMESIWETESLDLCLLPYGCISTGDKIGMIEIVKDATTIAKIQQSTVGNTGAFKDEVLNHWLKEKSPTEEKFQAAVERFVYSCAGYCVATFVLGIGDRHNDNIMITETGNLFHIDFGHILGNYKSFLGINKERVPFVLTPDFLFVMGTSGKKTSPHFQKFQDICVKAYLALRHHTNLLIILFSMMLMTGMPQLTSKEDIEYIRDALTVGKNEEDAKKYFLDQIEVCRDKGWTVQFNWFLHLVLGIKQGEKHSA
Structure (SMILES),pIC50 (mTOR; [2]),pIC50 (PI3K delta (PI3 Kd); [3]),"pIC50 [1, 4]",PI3Ka (PI3Kalpha (PI3Ka); Further Kinobeads Data),pIC50 (PI3 Kbeta (PI3 Kb); [5]),pIC50 (PI3 Kgamma (PI3 Kg); [6]),pIC50 (mTOR; [7]),pIC50 (PI3K delta (PI3 Kd); [8]),"pIC50 [1, 9]","Inhibition values (IC50) PI3Ka (PI3Kalpha (PI3Ka); kinobeads assay, Table 6)",pIC50 (PI3 Kbeta (PI3 Kb); [10]),pIC50 (PI3 Kgamma (PI3 Kg); [11]),pIC50 (PI3Kalpha (PI3Ka); [12]),"pIC50 (PI3Kalpha (PI3Ka); Further Kinobeads Data, read-out: PI3Ka)"
"CCOC(=O)N1Cc2nc(-c3ccc(NC(=O)NCC(=O)NC)cc3)nc(N3CCOC[C@@H]3C)c2C1 [Example 125, (S)-ethyl 2-(4-(3-(2-(methylamino)-2-oxoethyl)ureido)phenyl)-4-(3-methylmorpholino)-5H-pyrrolo[3,4-d]pyrimidine-6(7H)-carboxylate]",,,,,,,6.00 to 7.00,6.00 to 7.00,< 5.00,B (B >0.1 μM < 1 μM),5.00 to 6.00,5.00 to 6.00,,
"C[C@H]1COCCN1c1nc(-c2ccc(NC(=O)NC3CC3)cc2)nc2c1CN(C(=O)CCN1CCCC1=O)C2 [Example 132, (S)-1-cyclopropyl-3-(4-(4-(3-methylmorpholino)-6-(3-(2-oxopyrrolidin-1-yl)propanoyl)-6,7-dihydro-5H-pyrrolo[3,4-d]pyrimidin-2-yl)phenyl)urea]",,,,,,,> 7.00,5.00 to 6.00,< 5.00,,5.00 to 6.00,< 5.00,5.00 to 6.00,
"CCOC(=O)N1Cc2nc(-c3ccc(NC(=O)Nc4cccnc4)cc3)nc(N3CCOC[C@@H]3C)c2C1 [Example 118, (S)-ethyl 4-(3-methylmorpholino)-2-(4-(3-(pyridin-3-yl)ureido)phenyl)-5H-pyrrolo[3,4-d]pyrimidine-6(7H)-carboxylate]",,,,,,,6.00 to 7.00,< 5.00,< 5.00,D (D >10 μM),< 5.00,< 5.00,,
"CC(=O)NCCCC(=O)N1Cc2nc(-c3ccc(NC(=O)NC4CC4)cc3)nc(N3CCOC[C@@H]3C)c2C1 [Example 133, (S)—N-(4-(2-(4-(3-cyclopropylureido)phenyl)-4-(3-methylmorpholino)-5H-pyrrolo[3,4-d]pyrimidin-6(7H)-yl)-4-oxobutyl)acetamide]",,,,,,,> 7.00,5.00 to 6.00,< 5.00,,5.00 to 6.00,< 5.00,5.00 to 6.00,
"C[C@H]1COCCN1c1nc(-c2ccc(NC(=O)NC3CC3)cc2)nc2c1CN(CC1CCNCC1)C2 [Example 130, (S)-1-cyclopropyl-3-(4-(4-(3-methylmorpholino)-6-(piperidin-4-ylmethyl)-6,7-dihydro-5H-pyrrolo[3,4-d]pyrimidin-2-yl)phenyl)urea]",,,,,,,> 7.00,5.00 to 6.00,< 5.00,,5.00 to 6.00,< 5.00,5.00 to 6.00,
"CCOC(=O)N1Cc2nc(-c3ccc(NC(=O)NCC(N)=O)cc3)nc(N3CCOC[C@@H]3C)c2C1 [Example 114, (S)-ethyl 2-(4-(3-(2-amino-2-oxoethyl)ureido)phenyl)-4-(3-methylmorpholino)-5H-pyrrolo[3,4-d]pyrimidine-6(7H)-carboxylate]",,,,,,,6.00 to 7.00,6.00 to 7.00,< 5.00,B (B >0.1 μM < 1 μM),5.00 to 6.00,5.00 to 6.00,,
"CC(=O)N(C)CCC(=O)N1Cc2nc(-c3ccc(NC(=O)NC4CC4)cc3)nc(N3CCOC[C@@H]3C)c2C1 [Example 135, (S)—N-(3-(2-(4-(3-cyclopropylureido)phenyl)-4-(3-methylmorpholino)-5H-pyrrolo[3,4-d]pyrimidin-6(7H)-yl)-3-oxopropyl)-N-methylacetamide]",,,,,,,> 7.00,5.00 to 6.00,< 5.00,,5.00 to 6.00,< 5.00,5.00 to 6.00,

# Results, then the compound that gave them:
pIC50 (mTOR; [2]),pIC50 (PI3K delta (PI3 Kd); [3]),"pIC50 [1, 4]",PI3Ka (PI3Kalpha (PI3Ka); Further Kinobeads Data),pIC50 (PI3 Kbeta (PI3 Kb); [5]),pIC50 (PI3 Kgamma (PI3 Kg); [6]),pIC50 (mTOR; [7]),pIC50 (PI3K delta (PI3 Kd); [8]),"pIC50 [1, 9]","Inhibition values (IC50) PI3Ka (PI3Kalpha (PI3Ka); kinobeads assay, Table 6)",pIC50 (PI3 Kbeta (PI3 Kb); [10]),pIC50 (PI3 Kgamma (PI3 Kg); [11]),pIC50 (PI3Kalpha (PI3Ka); [12]),"pIC50 (PI3Kalpha (PI3Ka); Further Kinobeads Data, read-out: PI3Ka)",Structure (SMILES)
5.00 to 6.00,< 5.00,< 5.00,D (D >10 μM),< 5.00,< 5.00,,,,,,,,,"CCNC(=O)Nc1c(F)cc(-c2nc3c(c(N4CCOC[C@@H]4C)n2)CN(C)C3)cc1F [Example 139, (S)-1-(2,6-difluoro-4-(6-methyl-4-(3-methylmorpholino)-6,7-dihydro-5H-pyrrolo[3,4-d]pyrimidin-2-yl)phenyl)-3-ethylurea]"
6.00 to 7.00,< 5.00,< 5.00,D (D >10 μM),< 5.00,< 5.00,,,,,,,,,"COC(=O)N1Cc2nc(-c3ccc(NC(=O)NCCO)cc3F)nc(N3CCOCC3)c2C1 [Example 175, Methyl 2-(2-fluoro-4-(3-(2-hydroxyethyl)ureido)phenyl)-4-morpholino-5H-pyrrolo[3,4-d]pyrimidine-6(7H)-carboxylate]"
> 7.00,5.00 to 6.00,< 5.00,D (D >10 μM),< 5.00,< 5.00,,,,,,,,,"CC(C)N1Cc2nc(-c3ccc(NC(=O)NCCO)cc3F)nc(N3CCOCC3)c2C1 [Example 184, 1-(3-fluoro-4-(6-isopropyl-4-morpholino-6,7-dihyro-5H-pyrrolo[3,4-d]pyrimidin-2-yl)phenyl)-3-(2-hydroxyethyl)urea]"
> 7.00,< 5.00,< 5.00,D (D >10 μM),< 5.00,< 5.00,,,,,,,,,"CCNC(=O)Nc1ccc(-c2nc3c(c(N4CCOC[C@@H]4C)n2)CNC3)c(F)c1.Cl [Example 158, (S)-1-ethyl-3-(3-fluoro-4-(4-(3-methylmorpholino)-6,7-dihydro-5H-pyrrolo[3,4-d]pyrimidin-2-yl)phenyl)urea hydrochloride]"
,,,,,,6.00 to 7.00,< 5.00,< 5.00,D (D >10 μM),5.00 to 6.00,< 5.00,,,"CCNC(=O)Nc1ccc(-c2nc3c(c(N4CCOC[C@@H]4C)n2)CN(C(=O)C2CCNCC2)C3)cc1F [Example 126, (S)-1-ethyl-3-(2-fluoro-4-(4-(3-methylmorpholino)-6-(piperidine-4-carbonyl)-6,7-dihydro-5H-pyrrolo[3,4-d]pyrimidin-2-yl)phenyl)urea]"
> 7.00,< 5.00,< 5.00,D (D >10 μM),< 5.00,< 5.00,,,,,,,,,"CCNC(=O)Nc1ccc(-c2nc3c(c(N4CCOCC4)n2)CN(C(C)=O)C3)c(F)c1 [Example 161, 1-(4-(6-acetyl-4-morpholino-6,7-dihydro-5H-pyrrolo[3,4-d]pyrimidin-2-yl)-3-fluorophenyl)-3-ethylurea]"
> 7.00,< 5.00,< 5.00,,< 5.00,< 5.00,,,,,,,,5.00 to 6.00,"CCNC(=O)Nc1ccc(-c2nc3c(c(N4CCOCC4)n2)CNC3)c(F)c1 [Example 150, 1-Ethyl-3-(3-fluoro-4-(4-morpholino-6,7-dihydro-5H-pyrrolo[3,4-d]pyrimidin-2-yl)phenyl)urea hydrochloride]"
,,,,,,6.00 to 7.00,< 5.00,< 5.00,D (D >10 μM),< 5.00,< 5.00,,,"CCNC(=O)Nc1ccc(-c2nc3c(c(N4CCOC[C@@H]4C)n2)CN(C2CCN(C(C)=O)CC2)C3)cc1F [Example 117, (S)-1-(4-(6-(1-acetylpiperidin-4-yl)-4-(3-methylmorpholino)-6,7-dihydro-5H-pyrrolo[3,4-d]pyrimidin-2-yl)-2-fluorophenyl)-3-ethylurea]"

# Reference: US8785457B2 (Cellzome Limited, priority 2009, dated 2014)
